# “Also recorded” adds a separate entry of the source.
# Legend:
# [1] = tested on: Bax/Bak double knockout MEF cells (DKO/MEFs); test: Bax/Bak double knockout MEF cytotoxicity, FITC-Annexin V/PI assay; format: cell-based, mouse; details: 10 μM, result in words
# [2] = in vitro microsomal stability; details: rat microsomes
# [3] = chemical stability as solid powder at room temperature; format: physicochemical; details: in air, no ascorbic acid
# [4] = in vitro plasma stability
# [5] = result in words; cited from earlier work
# [6] = single dose of 100, 75, 50 and 25 mg/kg ip, 14 days, result in words
# Bfl-1 = biological target: T1, Bfl-1 (Homo sapiens, UniProt Q16548); test: competitive fluorescence polarization assay; format: binding; details: relative to compound 2
# T1 sequence (Q16548 1-175): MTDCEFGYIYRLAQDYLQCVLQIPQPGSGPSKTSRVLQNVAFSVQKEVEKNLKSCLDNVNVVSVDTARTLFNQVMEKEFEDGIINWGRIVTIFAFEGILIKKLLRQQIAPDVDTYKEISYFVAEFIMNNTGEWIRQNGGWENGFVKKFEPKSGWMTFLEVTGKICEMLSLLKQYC
# GST-Mcl-1 = GST-Mcl-1 (Homo sapiens, UniProt Q07820); test: competitive fluorescence polarization assay; format: binding; details: relative to compound 2
# GST-Mcl-1, sequence (Q07820 whole entry): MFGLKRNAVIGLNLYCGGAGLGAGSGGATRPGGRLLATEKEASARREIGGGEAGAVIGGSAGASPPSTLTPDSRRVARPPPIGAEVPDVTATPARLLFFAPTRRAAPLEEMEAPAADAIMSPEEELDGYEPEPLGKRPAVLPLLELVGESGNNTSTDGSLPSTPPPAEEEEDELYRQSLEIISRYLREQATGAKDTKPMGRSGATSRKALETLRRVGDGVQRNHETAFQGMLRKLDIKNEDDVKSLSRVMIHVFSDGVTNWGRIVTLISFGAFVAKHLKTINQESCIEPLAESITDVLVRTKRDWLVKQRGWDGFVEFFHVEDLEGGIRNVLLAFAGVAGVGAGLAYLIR
# GST-Bcl-2 = GST-Bcl-2 (Homo sapiens, UniProt P10415); test: competitive fluorescence polarization assay; format: binding; details: relative to compound 2
# GST-Bcl-2, sequence (P10415 whole entry): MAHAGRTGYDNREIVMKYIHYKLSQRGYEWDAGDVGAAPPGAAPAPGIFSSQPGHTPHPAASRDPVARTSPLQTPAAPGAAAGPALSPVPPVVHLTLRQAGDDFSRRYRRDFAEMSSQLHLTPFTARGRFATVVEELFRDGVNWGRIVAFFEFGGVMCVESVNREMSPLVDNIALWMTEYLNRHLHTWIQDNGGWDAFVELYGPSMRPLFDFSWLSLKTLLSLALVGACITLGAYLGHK
# Bcl-XL = Bcl-XL (Homo sapiens, UniProt Q07817); test: Isothermal Titration Calorimetry; format: binding; details: relative to compound 2
# Bcl-XL, sequence (Q07817 whole entry): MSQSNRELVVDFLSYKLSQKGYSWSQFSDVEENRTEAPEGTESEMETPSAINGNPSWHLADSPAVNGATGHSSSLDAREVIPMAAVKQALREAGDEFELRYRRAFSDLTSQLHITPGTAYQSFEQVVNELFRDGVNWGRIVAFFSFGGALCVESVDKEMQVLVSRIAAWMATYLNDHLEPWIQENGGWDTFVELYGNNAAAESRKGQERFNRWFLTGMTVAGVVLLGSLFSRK
# GST–Bcl-XL ΔTM protein = GST–Bcl-XL ΔTM protein (Homo sapiens, UniProt Q07817); test: competitive fluorescence polarization assay; format: binding; details: relative to compound 2
# GST–Bcl-XL ΔTM protein, sequence (Q07817 1-209 limits assumed, stated change not applied): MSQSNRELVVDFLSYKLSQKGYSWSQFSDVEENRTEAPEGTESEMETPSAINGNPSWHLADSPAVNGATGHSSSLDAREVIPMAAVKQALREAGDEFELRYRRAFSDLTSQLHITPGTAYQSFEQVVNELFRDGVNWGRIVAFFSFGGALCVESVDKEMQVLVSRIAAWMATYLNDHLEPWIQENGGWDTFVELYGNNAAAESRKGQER
# Bcl-2 transgenic mice = test: spleen weight reduction in Bcl-2 transgenic mice; format: in vivo, mouse; details: single ip injection, 72 μmol/kg, result in words
# RS11846 cells = test: RS11846 apoptosis, Annexin V-FITC and propidium iodide assay; details: result in words
# BP3 cells = test: BP3 cells, Annexin V-FITC and propidium iodide assay; details: result in words
compound,measurement,setting,value
"Cc1cc2c(C(C)C)c(O)c(O)c(C=O)c2c(O)c1-c1c(C)cc2c(C(C)C)c(O)c(O)c(C=O)c2c1O [Compound 1, 1,1′,6,6′,7,7′-Hexahydroxy-5,5′-diisopropyl-3,3′-dimethyl-2,2′-binaphthyl-8,8′-dicarboxaldehyde, reference compound]",killing of DKO/MEFs (bax−/−bak−/− cells),[1],equally effective in killing both wt MEFs and MEF/DKOs
"Cc1cc2c(C(C)C)c(O)c(O)cc2c(O)c1-c1c(C)cc2c(C(C)C)c(O)c(O)cc2c1O [Compound 2, 5,5′-Diisopropyl-1,1′,6,6′,7,7′-hexahydroxy-3,3′-dimethyl-2,2′-binaphthalene, reference compound]",degraded after 1 h incubation in rat microsomal preparations,[2],36%
same,degraded after 60 days at room temperature,[3],~80%
same,killing of DKO/MEFs (bax−/−bak−/− cells),[1],reduced cytotoxicity against MEF/DKOs
same,degraded after 1 h incubation in rat plasma,[4],47%
Cc1cc2c(C(=O)Cc3ccccc3)c(O)c(O)cc2c(O)c1-c1c(C)cc2c(C(=O)Cc3ccccc3)c(O)c(O)cc2c1O [Compound 3],GI toxicity in mice,[5],mild GI toxicity
"Cc1cc2c(C(=O)NC(C)c3ccc(Cl)cc3)c(O)c(O)cc2c(O)c1-c1c(C)cc2c(C(=O)NC(C)c3ccc(Cl)cc3)c(O)c(O)cc2c1O (stereo not shown) [Compound 8k, N^5,N^5′-Bis(1-(4-chlorophenyl)ethyl)-1,1′,6,6′,7,7′-hexahydroxy-3,3′-dimethyl-2,2′-binaphthyl-5,5′-dicarboxamide]",killing of DKO/MEFs (bax−/−bak−/− cells),[1],ineffective
"Cc1cc2c(C(=O)NCC3CCCCC3)c(O)c(O)cc2c(O)c1-c1c(C)cc2c(C(=O)NCC3CCCCC3)c(O)c(O)cc2c1O [Compound 8m, N^5,N^5′-Bis(cyclohexylmethyl)-1,1′,6,6′,7,7′-hexahydroxy-3,3′-dimethyl-2,2′-binaphthyl-5,5′-dicarboxamide]",degraded after 1 h incubation in rat microsomal preparations,[2],10%
same,killing of DKO/MEFs (bax−/−bak−/− cells),[1],ineffective
same,degraded after 1 h incubation in rat plasma,[4],11%
"Cc1cc2c(C(=O)NCCc3cccc(Cl)c3)c(O)c(O)cc2c(O)c1-c1c(C)cc2c(C(=O)NCCc3cccc(Cl)c3)c(O)c(O)cc2c1O [Compound 8p, N^5,N^5′-Bis(3-chlorophenethyl)-1,1′,6,6′,7,7′-hexahydroxy-3,3′-dimethyl-2,2′-binaphthyl-5,5′-dicarboxamide]",killing of DKO/MEFs (bax−/−bak−/− cells),[1],ineffective
"CCc1ccc(CCNC(=O)c2c(O)c(O)cc3c(O)c(-c4c(C)cc5c(C(=O)NCCc6ccc(CC)cc6)c(O)c(O)cc5c4O)c(C)cc23)cc1 [Compound 8q, N^5,N^5′-Bis(4-ethylphenethyl)-1,1′,6,6′,7,7′-hexahydroxy-3,3′-dimethyl-2,2′-binaphthyl-5,5′-dicarboxamide]",degraded after 60 days at room temperature,[3],10%
same,killing of DKO/MEFs (bax−/−bak−/− cells),[1],ineffective
"Cc1cc2c(C(=O)NCC(C)c3ccccc3)c(O)c(O)cc2c(O)c1-c1c(C)cc2c(C(=O)NCC(C)c3ccccc3)c(O)c(O)cc2c1O (stereo not shown) [Compound 8r, 1,1′,6,6′,7,7′-Hexahydroxy-3,3′-dimethyl-N^5,N^5′-bis(2-phenylpropyl)-2,2′-binaphthyl-5,5′-dicarboxamide]",degraded after 1 h incubation in rat microsomal preparations,[2],24%
same,mortality,[6],All mice were alive after 14 days
same,"times higher potency than compound 2, FP Bfl-1",Bfl-1,approximately 10 times
same,degraded after 60 days at room temperature,[3],10%
same,"times higher potency than compound 2, FP Mcl-1",GST-Mcl-1,approximately 10 times
same,killing of DKO/MEFs (bax−/−bak−/− cells),[1],ineffective; also recorded: little cytotoxicity
same,"times higher potency than compound 2, FP Bcl-2",GST-Bcl-2,approximately 10 times
same,"times more potent than compound 2, ITC Bcl-XL",Bcl-XL,15 times
same,degraded after 1 h incubation in rat plasma,[4],4%
same,"times more effective than 2, FP displacement Bcl-XL",GST–Bcl-XL ΔTM protein,5 times
"Cc1cc2c(CC3CCCC3)c(O)c(O)cc2c(O)c1-c1c(C)cc2c(CC3CCCC3)c(O)c(O)cc2c1O [Compound 12c, 5,5′-Bis(cyclopentylmethyl)-3,3′-dimethyl-2,2′-binaphthyl-1,1′,6,6′,7,7′-hexaol]",in vivo activity in Bcl-2 transgenic mice,Bcl-2 transgenic mice,lower in vivo activity
"Cc1cc2c(CCc3ccccc3)c(O)c(O)cc2c(O)c1-c1c(C)cc2c(CCc3ccccc3)c(O)c(O)cc2c1O [Compound 12e, 3,3′-Dimethyl-5,5′-diphenethyl-2,2′-binaphthyl-1,1′,6,6′,7,7′-hexaol]",in vivo activity in Bcl-2 transgenic mice,Bcl-2 transgenic mice,lower in vivo activity
"Cc1cc2cc(O)c(O)cc2c(O)c1-c1c(C)cc2cc(O)c(O)cc2c1O [Compound 13, 3,3′-Dimethyl-2,2′-binaphthyl-1,1′,6,6′,7,7′-hexaol]",induction of apoptosis of the RS11846 cell line,RS11846 cells,little or no apoptosis
"Cc1cc2c(C(=O)O)c(O)c(O)cc2c(O)c1-c1c(C)cc2c(C(=O)O)c(O)c(O)cc2c1O [Compound 14, 1,1′,6,6′,7,7′-Hexahydroxy-3,3′-dimethyl-2,2′-binaphthyl-5,5′-dicarboxylic acid]",induction of apoptosis of the RS11846 cell line,RS11846 cells,little or no apoptosis
CN(C)CC[C@H](CSc1ccccc1)Nc1ccc(S(=O)(=O)NC(=O)c2ccc(N3CCN(Cc4ccccc4-c4ccc(Cl)cc4)CC3)cc2)cc1[N+](=O)[O-] [Compound 15],cytotoxic activity against BP3 cell lines,BP3 cells,no cytotoxic activity

# — article PMC2747480 (Journal of medicinal chemistry, 2009)
